Reference: PubChem BioAssay (NCI)
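Cultured in 96-well plates, cells were exposed to test compound for 48 hours across five concentrations. Here, GI50 denotes the concentration required for 50% inhibition of growth. TGI: concentration producing complete growth inhibition.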

Legend:
Assay in all cases: NCI tumour cell line growth inhibition, 48 h
[1] = system: UACC-257 melanoma
[2] = system: HS 578T breast
[3] = system: IGROV1 ovarian
[4] = system: HOP-92 NSCLC
[5] = system: SF-295 CNS
[6] = system: MOLT-4 leukemia
[7] = system: M14 melanoma
[8] = system: DU-145 prostate
[9] = system: EKVX NSCLC
[10] = system: K-562 leukemia
[11] = system: NCI-H226 lung
[12] = system: NCI-H460 lung
[13] = system: A498 renal
[14] = system: ACHN renal
[15] = system: U251 CNS
[16] = system: TK-10 renal
[17] = system: OVCAR-8 ovarian
[18] = system: PC-3 prostate
[19] = system: NCI-H23 lung
[20] = system: SN12C renal
[21] = system: LOX IMVI melanoma
[22] = system: HT29 colon
[23] = system: OVCAR-5 ovarian
[24] = system: RPMI-8226 leukemia
[25] = system: CAKI-1 renal
[26] = system: UACC-62 melanoma
[27] = system: SF-539 CNS
[28] = system: A549 NSCLC
[29] = system: NCI/ADR-RES ovarian
[30] = system: HCC-2998 colon
[31] = system: MDA-MB-435
[32] = system: 786-0 renal
[33] = system: BT-549 breast
[34] = system: HOP-62 NSCLC
[35] = system: UO-31 renal
[36] = system: SF-268 CNS
[37] = system: COLO 205 colon
[38] = system: HL-60(TB) leukemia
[39] = system: NCI-H522 lung
[40] = system: SK-OV-3 ovarian
[41] = system: OVCAR-3 ovarian
[42] = system: SNB-19 CNS
[43] = system: HCT-116 colon
[44] = system: MCF7 breast
[45] = system: T-47D breast
[46] = system: MALME-3M melanoma
[47] = system: SW-620 colon
[48] = system: HCT-15 colon
[49] = system: OVCAR-4 ovarian
[50] = system: SNB-75 CNS
[51] = system: SK-MEL-28 melanoma
[52] = system: KM12 colon
[53] = system: SR leukemia
[54] = system: CCRF-CEM leukemia
[55] = system: MDA-MB-231 breast
[56] = system: SK-MEL-5 melanoma
[57] = system: RXF 393 renal
[58] = system: SK-MEL-2 melanoma

O=C(N/N=C\c1ccc([N+](=O)[O-])cc1)c1ccc2nc(-c3ccc(Br)cc3)[nH]c2c1
GI50 [1]: 1260 nM | TGI [1]: 6350 nM | GI50 [2]: 1590 nM | TGI [2]: 17000 nM | GI50 [3]: 1610 nM | TGI [3]: 14800 nM | GI50 [4]: 2580 nM | TGI [4]: 9260 nM | GI50 [5]: 1300 nM | TGI [5]: 13400 nM | GI50 [6]: 912 nM | TGI [6]: 4390 nM | GI50 [7]: 1400 nM | TGI [7]: 6690 nM | GI50 [8]: 1630 nM | TGI [8]: > 54200 nM | GI50 [9]: 1810 nM | TGI [9]: 97500 nM | GI50 [10]: 882 nM | TGI [10]: 4180 nM | GI50 [11]: 2580 nM | TGI [11]: > 54700 nM | GI50 [12]: 914 nM | TGI [12]: 2530 nM | GI50 [13]: 1620 nM | TGI [13]: 8340 nM | GI50 [14]: 1920 nM | TGI [14]: > 51700 nM | GI50 [15]: 1110 nM | TGI [15]: 3410 nM | GI50 [16]: 2960 nM | TGI [16]: 26000 nM | GI50 [17]: 979 nM | TGI [17]: 4620 nM | GI50 [18]: 1300 nM | TGI [18]: 9400 nM | GI50 [19]: 398 nM | TGI [19]: 3160 nM | GI50 [20]: 1220 nM | TGI [20]: 14100 nM | GI50 [21]: 978 nM | TGI [21]: 3140 nM | GI50 [22]: 939 nM | TGI [22]: 2680 nM | GI50 [23]: 2630 nM | TGI [23]: > 58800 nM | GI50 [24]: 875 nM | TGI [24]: 2880 nM | GI50 [25]: 1670 nM | TGI [25]: 22600 nM | GI50 [26]: 1610 nM | TGI [26]: 14500 nM | GI50 [27]: 1920 nM | TGI [27]: 7900 nM | GI50 [28]: 1610 nM | TGI [28]: > 31200 nM | GI50 [29]: 18500 nM | TGI [29]: > 100000 nM | GI50 [30]: 1300 nM | TGI [30]: 3960 nM | GI50 [31]: 1420 nM | TGI [31]: 5060 nM | GI50 [32]: 2920 nM | TGI [32]: 13000 nM | GI50 [33]: 911 nM | TGI [33]: 3400 nM | GI50 [34]: 1900 nM | TGI [34]: 10500 nM | GI50 [35]: 2160 nM | TGI [35]: > 51100 nM | GI50 [36]: 3870 nM | TGI [36]: 96900 nM | GI50 [37]: 842 nM | TGI [37]: 2100 nM | GI50 [38]: 801 nM | TGI [38]: 4960 nM | GI50 [39]: 903 nM | TGI [39]: 2920 nM | GI50 [40]: 2900 nM | TGI [40]: > 70700 nM | GI50 [41]: 3080 nM | TGI [41]: 7950 nM | GI50 [42]: 2290 nM | TGI [42]: 39600 nM | GI50 [43]: 1020 nM | TGI [43]: 3680 nM | GI50 [44]: 704 nM | TGI [44]: 2260 nM | GI50 [45]: 955 nM | TGI [45]: 3280 nM | GI50 [46]: 1270 nM | TGI [46]: 4630 nM | GI50 [47]: 1270 nM | TGI [47]: 4950 nM | GI50 [48]: 1220 nM | TGI [48]: 14800 nM | GI50 [49]: 1450 nM | TGI [49]: > 43000 nM | GI50 [50]: 3790 nM | TGI [50]: 20000 nM | GI50 [51]: 1900 nM | TGI [51]: 11700 nM | GI50 [52]: 1200 nM | TGI [52]: 9300 nM | GI50 [53]: 891 nM | TGI [53]: 4550 nM | GI50 [54]: 1340 nM | TGI [54]: 8010 nM | GI50 [55]: 2930 nM | TGI [55]: 12000 nM | GI50 [56]: 912 nM | TGI [56]: 2880 nM | GI50 [57]: 1130 nM | TGI [57]: 3790 nM | GI50 [58]: 3990 nM | TGI [58]: 16600 nM
